Laboratory results as given in ChEMBL document CHEMBL1129467, “Synthesis and HIV inhibition activity of 2',3'-dideoxy-3'-C-hydroxymethyl nucleosides” (1996).
Values joined by “and” are separate entries in the source; they are usually repeats but may differ in a detail not shown here. Equal values may be shown once.

Columns and labels:
Assay type in all cases: functional, Homo sapiens
H9 [1] = experiment: Compound was tested for the cytotoxicity in H-9 cells infected with HIV-IIIB over 7 days
H9 [2] = experiment: Compound was tested for the inhibiting acute infection of H9 cells over 7 days at 1 mM
H9 [3] = experiment: (§1) Compound was tested for the inhibiting acute infection of H9 cells over 7 days at 50 mM
H9 [4] = experiment: Compound was tested for the inhibiting acute infection of H9 cells over 14 days 1 mM
H9 [5] = experiment: Compound was tested for the cytotoxicity in H-9 cells infected with HIV-IIIB over 14 days
H9 [6] = experiment: Compound was tested for the effective inhibiting acute infection of H9 cells over 7 days at 50 mM
H9 [7] = experiment: Compound was Tested for the inhibiting acute infection of H9 cells over 7 days at 1 mM
H9 [8] = experiment: Compound was tested for the effective inhibiting acute infection of H9 cells over 7 days at 100 mM
H9 [9] = experiment: as §1; remark: listed apart in the source
H9 [10] = experiment: Compound was tested for the cytotoxicity in H-9 cells infected with HIV-IIIB over 9 days

Structure (SMILES) | P24 concentration (H9 [1]) | P24 concentration (H9 [5]) | also measured
CCCCCCOc1ncnc2c1ncn2[C@H]1C[C@H](CO)[C@@H](CO)O1 | 1 ng/mL | 80 ng/mL | P24 concentration (H9 [2]): 2 ng/mL; P24 concentration (H9 [3]): 1 ng/mL and 3 ng/mL; P24 concentration (H9 [4]): 90 ng/mL
COc1ncnc2c1ncn2[C@H]1C[C@H](CO)[C@@H](CO)O1 | 12 ng/mL | 6 ng/mL | P24 concentration (H9 [2]): 80 ng/mL
Nc1ncnc2c1ncn2[C@@H]1C[C@H](CO)[C@@H](CO)O1 | 10 ng/mL | 80 ng/mL | 
OC[C@H]1C[C@H](n2cnc3cncnc32)O[C@@H]1CO | 8 ng/mL | 80 ng/mL | 
OC[C@H]1C[C@@H](n2cnc3c(Cl)ncnc32)O[C@@H]1CO | 2 ng/mL | 80 ng/mL | 
COc1ncnc2c1ncn2[C@@H]1C[C@H](CO)[C@@H](CO)O1 | 5 ng/mL | 80 ng/mL | 
Nc1ncnc2c1ncn2[C@H]1C[C@H](CO)[C@@H](CO)O1 | 0.5 ng/mL | 2 ng/mL | P24 concentration (H9 [6]): 100 ng/mL; P24 concentration (H9 [7]): 6 ng/mL; P24 concentration (H9 [8]): 0.1 ng/mL; P24 concentration (H9 [3]): 0.5 ng/mL and 1 ng/mL; P24 concentration (H9 [4]): 90 ng/mL
OC[C@H]1C[C@@H](n2cnc3cncnc32)O[C@@H]1CO | 12 ng/mL | 80 ng/mL | P24 concentration (H9 [9]): 14 ng/mL; P24 concentration (H9 [2]): 6 ng/mL; P24 concentration (H9 [3]): 90 ng/mL; P24 concentration (H9 [4]): 90 ng/mL
CCCCCCOc1ncnc2c1ncn2[C@@H]1C[C@H](CO)[C@@H](CO)O1 | 4 ng/mL | 80 ng/mL | 
OC[C@H]1C[C@H](n2cnc3c(Cl)ncnc32)O[C@@H]1CO | 2 ng/mL | 80 ng/mL | 
Cc1cn([C@H]2C[C@H](N=[N+]=[N-])[C@@H](CO)O2)c(=O)[nH]c1=O [ZIDOVUDINE] | 100 ng/mL |  | P24 concentration (H9 [10]): 600 ng/mL
